Our source for the pID50 values is ChEMBL document CHEMBL1250491, “Multivariate QSAR study on the antimutagenic activity of flavonoids against 3-NFA on Salmonella typhimurium TA98” (2010).

SMILES strings stand for the structures.

This assay deals with Salmonella typhimurium. Description: Antimutagenic activity in Salmonella Typhimurium TA98 assessed as inhibition of 3-nitrofluoranthene-induced mutation by Ames test. It counts as functional, Salmonella enterica subsp. enterica serovar Typhimurium. In general terms: In the Ames test, an excess of revertant colonies over the control signals mutagenicity.
As to `COc1ccccc1-c1cc(=O)c2ccccc2o1`, the pID50 was found to be 5.046.
Under `COc1ccc2oc(-c3ccccc3)c(O)c(=O)c2c1` stands 5.62; under `O=c1cc(-c2ccccc2)oc2cccc(O)c12` [5-HYDROXYFLAVONE], 5.357; under `O=c1cc(-c2ccccc2)oc2ccc(O)cc12` [6-HYDROXYFLAVONE], 6.699.
Under `O=c1cc(-c2ccccc2)oc2cc(O)ccc12` [7-HYDROXYFLAVONE] stands 5.456; under `O=c1cc(-c2ccc(O)cc2)oc2cc(O)cc(O)c12` [APIGENIN], 7; under `O=c1cc(-c2ccc(O)cc2)oc2cc(O[C@@H]3O[C@H](CO)[C@@H](O)[C@H](O)[C@H]3O)cc(O)c12` [APIGETRIN], 5.62.
Take `O=c1cc(-c2ccccc2)oc2cc(O)cc(O)c12` [CHRYSIN]: the pID50 stood at 6.
Under `O=c1c(O)c(-c2ccccc2)oc2ccccc12` [FLAVONOL] stands 6.538; under `O=c1cc(-c2ccc(O)c(O)c2)oc2cc(O[C@@H]3O[C@H](CO)[C@@H](O)[C@H](O)[C@H]3O)cc(O)c12` [GALUTEOLIN], 5.092.
Under `COc1ccc([C@@H]2CC(=O)c3c(O)cc(O)cc3O2)cc1O` [HESPERETIN] stands 6.097; under `COc1cc(-c2oc3cc(O)cc(O)c3c(=O)c2O)ccc1O` [ISORHAMNETIN], 6.097.
Under `O=c1c(O)c(-c2ccc(O)cc2)oc2cc(O)cc(O)c12` [KAEMPFEROL] stands 6.538.
In the case of `O=c1c(O)c(-c2ccc(O)cc2O)oc2cc(O)cc(O)c12` [MORIN], the pID50 is recorded as 6.155.
Under `O=c1c(O)c(-c2cc(O)c(O)c(O)c2)oc2cc(O)cc(O)c12` [MYRICETIN] stands 6.222.
Turning to `O=C1C[C@@H](c2ccc(O)cc2)Oc2cc(O)cc(O)c21` [NARINGENIN], the pID50 stood at 5.886.
On to `O=c1c(O)c(-c2ccc(O)c(O)c2)oc2cc(O)cc(O)c12` [QUERCETIN], for which the pID50 is on record as 5.143.
`C[C@@H]1O[C@@H](OC[C@H]2O[C@@H](Oc3c(-c4ccc(O)c(O)c4)oc4cc(O)cc(O)c4c3=O)[C@H](O)[C@@H](O)[C@@H]2O)[C@H](O)[C@H](O)[C@H]1O` [RUTIN]: the pID50 is recorded as 5.022.
For the compound `COc1ccc(-c2cc(=O)c3c(OC)c(OC)c(OC)c(OC)c3o2)cc1` [TANGERETIN], the pID50 turned out to be 4.967.
